Measured values taken from patent US6525057B2, “Sustained release ranolazine formulations” (CV Therapeutics, Inc., priority 1998, dated 2003).
Read-outs that look alike come from different tables or passages of the source.

Columns and labels:
[1] = Solubility of ranolazine in aqueous solutions by pH; format: physicochemical
[2] = system: patients with chronic stable angina pectoris; assay: Example 4: exercise treadmill test (ETT) at peak and trough, IR regimens; format: in vivo, human; settings: Peak, all patients, 267 mg tid IR ranolazine .2HCl
Protocol: In this Example, the safety and anti-ischemic effects of high plasma ranolazine levels in a large group of angina patients was evaluated and the duration of any effects during steady-state dosing with bid and tid regimens was assessed. In this Example, patients with chronic stable angina pectoris who were responsive to conventional antianginal drugs were treated with 3 ranolazine .2HCl dosing regimens: 267 mg tid, 400 mg bid and 400 mg tid IR Formulations of Example 1. Exercise testing parameters and ranolazine free base concentrations were determined at peak and trough plasma levels.
The study involved double-blind, placebo-controlled randomized treatment phase with 4 treatments (placebo, ranolazine .2HCl 400 mg bid, ranolazine .2HCl 267 mg tid, and ranolazine .2HCl 400 mg tid), 4 treatment sequences and 5 double-blind treatment periods in an extended period Latin square design on pre-qualified patients who were responsive to known antianginal therapy and had stable exercise times.
Human patients with chronic stable angina pectoris, of at least 3 months' duration, that had responded to conventional antianginal therapy were considered candidates. […]

[3] = system: patients with stable angina pectoris; settings: after 4 weeks, 1 hour after medication (peak effect), P=NS vs placebo, cited from earlier work
[4] = Example 8: Day 5 pharmacokinetics of racemic ranolazine and enantiomers, SR 1500 and 2000 mg bid; format: in vivo, human; settings: for Tmax / Cmax / AUC: male, human, plasma, oral; for AUC: read-out: AUC96-108h
Protocol: This Example evaluated the safety and tolerability of administering racemic ranolazine free base formulations as in Example 2D. The individual and mean concentrations of racemic ranolazine and its enantiomers, (R)-(+)-N-(2,6-dimethylphenyl)-4-[2-hydroxy-3-(2-methoxyphenoxy)-propyl]-1-piperazineacetamide, (S)-(−)-N-(2,6-dimethylphenyl)-4-[2-hydroxy-3-(2-methoxyphenoxy)-propyl]-1-piperazineacetamide in human plasma were also determined.
(§1) The study was performed with ascending doses of sustained release ranolazine dosage forms. Before and at intervals during and after the dosing period, blood samples were drawn for ranolazine assay and blood pressure, heart rate, ECG and symptoms were monitored throughout. Data summaries were reviewed after each phase before proceeding to the next phase of the study.
(§2) Eight subjects, all healthy male volunteers aged between 18 and 40 entered and all completed the study and were available for pharmacokinetic and safety analysis. The subjects were each given doses of the various types of ranolazine free base in the form of sustained release tablets including 500 mg and 750 mg tablets or with matching placebo as necessary (2×750 mg size plus 1×500 mg size) to make unit oral doses of 1500 and 2000 mg.
(§3) In each phase: one dose bid for four days with a single dose on Day 5. On day 5 each volunteer underwent a full pharmacokinetic profile including supine and erect blood pressure (BP) and heart rate, ECG data, adverse events, clinical chemistry and hematology results, urinalysis results.
(§4) These tests were made using two-sided t-tests with estimates of variability from the ANOVA models. Steady state was also assessed by comparing means for C48h, C72h and C96h using a mixed effects ANOVA model and untransformed and log, transformed data. For hemodynamic parameters, Day 1 pre-dose treatment means and Day 5 data were compared across treatments via two-sided t-tests using estimates of variability from mixed effects ANOVA models. Ninety and 95% confidence intervals were calculated for the treatment comparisons. No adjustments were made for multiple comparisons.

[5] = system: healthy male volunteers; assay: Example 8: safety and tolerability of SR 1500 and 2000 mg bid; format: in vivo, human; settings: for subjects too symptomatic on standing to complete BP measurements: usually 2-6 hours post-dose; for reduction in orthostatic systolic BP: statistically significant
Protocol: as §1, §2, §3, §4

[6] = Day 5, 1500 mg SR bid (racemic, Example 2D)
[7] = Day 5, 2000 mg SR bid (racemic, Example 2D)

COc1ccccc1OCC(O)CN1CCN(CC(=O)Nc2c(C)cccc2C)CC1 (racemic) [ranolazine, (±)-N-(2,6-dimethylphenyl)-4-[2-hydroxy-3-(2-methoxyphenoxy)-propyl]-1-piperazineacetamide]
USP Solubility Class ([1]; Solution pH 4.81): Freely soluble | USP Solubility Class ([1]; Solution pH 4.89): Soluble | USP Solubility Class ([1]; Solution pH 4.90): Soluble | USP Solubility Class ([1]; Solution pH 5.04): Soluble | USP Solubility Class ([1]; Solution pH 5.35): Sparingly soluble | USP Solubility Class ([1]; Solution pH 5.82): Slightly soluble | USP Solubility Class ([1]; Solution pH 6.46): Slightly soluble | USP Solubility Class ([1]; Solution pH 6.73): Very slightly soluble | USP Solubility Class ([1]; Solution pH 7.08): Very slightly soluble | USP Solubility Class ([1]; Solution pH 7.59 (unbuffered water)): Very slightly soluble | USP Solubility Class ([1]; Solution pH 7.73): Very slightly soluble | USP Solubility Class ([1]; Solution pH 12.66): Very slightly soluble | Mean time to onset angina [2]: 9.40 min | increase in total exercise duration (±SEM) compared with baseline ([3]; 30 mg tid): 0.3 ± 0.2 min | increase in total exercise duration (±SEM) compared with baseline ([3]; 60 mg tid): 0.6 ± 0.2 min | increase in total exercise duration (±SEM) compared with baseline ([3]; 120 mg tid): 0.5 ± 0.2 min | Cave [4, 6]: 4126 ± 1995 ng/mL | Cmin [4, 6]: 2932 ± 1918 ng/mL | Degree of fluctuation [4, 6]: 0.664 | Cave [4, 7]: 5705 ± 2153 ng/mL | Cmin [4, 7]: 4149 ± 2228 ng/mL | Degree of fluctuation [4, 7]: 0.591 | Steady-state plasma levels of ranolazine free base attained by ([4]; SR bid dosing): ≤ 4 days | Tmax ([4]; 1500 mg, Day 5, 1500 mg SR bid (racemic, Example 2D), read-out: Median tmax): 4 h | Tmax ([4]; 2000 mg, Day 5, 2000 mg SR bid (racemic, Example 2D), read-out: Median tmax): 4 h | Tmax ([4]; 2000 mg, within the dose interval, SR 1500 and 2000 mg bid, read-out: tmax values post-dose): 1 to 6 h | Cmax [4, 6]: 5280 ± 2430 ng/mL | AUC [4, 6]: 49500 ng·h/mL | Cmax [4, 7]: 7280 ± 2700 ng/mL | AUC [4, 7]: 68500 ng·h/mL | subjects too symptomatic on standing to complete BP measurements ([5]; 1500 mg SR bid): 3 of 8 | subjects too symptomatic on standing to complete BP measurements ([5]; 2000 mg SR bid): 2 of 8 | adverse events ([5]; SR 1500 and 2000 mg bid versus placebo): headache, dizziness and blocked nose seemed more common on ranolazine | reduction in orthostatic systolic BP ([5]; day 5, 1500 mg SR bid, 4 hours post-dose): −9.8 mm Hg | reduction in orthostatic systolic BP ([5]; day 5, 2000 mg SR bid, 6 hours post-dose): −8.4 mmHg
